# From patent US20200199647A1, “ASSAY FOR SCREENING MODULATORS OF HOLOPHOSPHATASE ACTIVITY” (UNITED KINGDOM RESEARCH AND INNOVATION, priority 2017, published 2020)
# Columns and labels:
# HeLa cells = assay: Cytoprotection of HeLa cells from Tunicamycin (ER) stress; assay type: cell-based; settings: 250 ng/ml Tunicamycin, 72 h
# Protocol: HeLa cells (40,000 cells/ml) were plated in a 96-well plate and treated with different concentrations of compound, as indicated, or DMSO vehicle in the presence of 250 ng/ml Tunicamycin for 72 h. To monitor cell death, 1/2000 dilution of the CellTox green dye (Promega) was added to the media. The growth of the cells was monitored over time and pictures taken every 2 h with the IncuCyte ZOOM system and analysed by the IncuCyte ZOOM software (Essen BioScience). To compare different compounds and their cytoprotective effect, a growth ratio for each time point was calculated:
# Growth ratio=(Phase confluency (%) at X hours)/(Phase confluency (%) at 0 hours)
# The end point of the assay (72 h) was chosen for generating the graphs.
# R15B = biological target: T1, R15B (Homo sapiens, UniProt Q5SWA1); assay: Limited trypsin proteolysis of R15B (conformational change); settings: 100 μM compound, 0.5 μM R15B, 2.5 nM trypsin, 30 min to 3 h, 22° C.
# T1 construct: PPP1R15B amino acids 340-698 (R15B); His6 (C); made in house; host or cells: E. coli BL21 pLysS
# T1 sequence (Q5SWA1 340-698): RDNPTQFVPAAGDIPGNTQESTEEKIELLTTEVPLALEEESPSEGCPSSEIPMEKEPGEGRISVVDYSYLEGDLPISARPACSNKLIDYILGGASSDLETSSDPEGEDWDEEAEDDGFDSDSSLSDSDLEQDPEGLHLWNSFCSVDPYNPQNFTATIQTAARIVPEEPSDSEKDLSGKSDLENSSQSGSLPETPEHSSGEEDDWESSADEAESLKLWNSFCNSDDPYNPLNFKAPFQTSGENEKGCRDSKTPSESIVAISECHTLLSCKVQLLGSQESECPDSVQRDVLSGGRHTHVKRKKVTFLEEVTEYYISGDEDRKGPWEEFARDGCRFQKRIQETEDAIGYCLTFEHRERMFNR
# Protocol: (§1) Reactions were allowed to proceed at 22° C. with shaking at 350 rpm. At time points 30 min, 1 h, 2 h or 3 h, 30 μl of sample was removed from the mix and digestion was stopped by addition of 10 μl of 16% SDS Laemmli sample buffer. Samples were run on 4-12% NuPAGE Bis-Tris gels (Life Technologies). Proteins were visualised by staining with InstantBlue Coomassie Protein Stain (Expedeon) protein stain.
# (§2) Purified R15A and R15B were diluted to 3 μM in PBS, and incubated for 15′ at RT with 100 μM Raphin1, or DMSO vehicle. Reactions were initiated by addition of 5 nM of trypsin from bovine pancreas (Sigma), made up in PBS, and allowed to proceed for 5′ at 22° C., with shaking at 350 rpm. Digestion was stopped by addition of 4× Laemmli sample buffer and samples were run on 4-12% NuPAGE Bis-Tris gels (Life Technologies). Proteins were visualised by staining with InstantBlue Protein Stain.
# R15B-PP1c = biological target: T2, R15B-PP1c (Homo sapiens, UniProt Q5SWA1); assay: In vitro dephosphorylation of P-eIF2α by recombinant R15B-PP1c holophosphatase (10 nM PP1c); assay type: biochemical; settings: PP1c 10 nM, 1 μM P-eIF2α, compounds 100 μM, 30° C., 16 h
# T2 construct: PPP1R15B amino acids 340-698 (R15B); His6 (C); made in house; host or cells: E. coli BL21 pLysS (R15B, eIF2α); E. coli BL21/pGro7 (PP1c)
# T2 sequence (P62136 7-330 partner limits assumed, one chain of several): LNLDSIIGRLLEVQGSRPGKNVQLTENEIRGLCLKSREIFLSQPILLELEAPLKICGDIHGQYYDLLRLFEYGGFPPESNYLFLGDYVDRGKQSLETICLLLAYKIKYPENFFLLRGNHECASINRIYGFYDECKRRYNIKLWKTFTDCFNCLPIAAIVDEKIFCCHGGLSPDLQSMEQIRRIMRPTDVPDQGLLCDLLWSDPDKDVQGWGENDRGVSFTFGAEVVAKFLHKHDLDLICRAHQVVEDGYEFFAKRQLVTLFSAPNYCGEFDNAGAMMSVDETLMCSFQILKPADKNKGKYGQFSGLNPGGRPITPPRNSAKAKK
# Protocol: (§3) PP1c was diluted to the appropriate concentration (as indicated in the figure legends) in dephosphorylation buffer immediately prior to use. Dephosphorylation reactions were carried out by pre-incubating diluted PP1c in the presence or absence of regulatory subunits (either […]), and/or compounds (all at 100 μM, except for Salubrinal which was used at 30 μM), for 15′ at RT. All compounds were diluted in DMSO, and DMSO vehicle was used in all control experiments.
# The reaction was initiated by the addition of 1 μM P-eIF2α or ^33P Phosphorylase a substrates and then incubated at 30° C. for 16 h with shaking at 350 rpm. Reactions were stopped by addition of 4× Laemmli sample buffer. eIF2α samples were analyzed by immunoblotting or Phos-tag gels. P-eIF2α dephosphorylation was analysed by immunoblotting using anti-Phospho-eIF2α (SerS1) (#9721) (Cell Signaling) and anti-eIF2α (ab26197) (AbCam) antibodies. Samples in FIG. 8 and FIG. 16 were run on a 15% SuperSep Phos-tag acrylamide gel (Alpha Laboratories) and visualized by staining with InstantBlue Protein Stain.
# R15A [1] = biological target: T3, R15A (Homo sapiens, UniProt O75807); assay: Limited trypsin proteolysis of R15A (conformational change); settings: 100 μM compound, 0.5 μM R15A, 2.5 nM trypsin, 30 min to 3 h, 22° C.
# T3 construct: PPP1R15A amino acids 325-636 (R15A); His6 (C); made in house; host or cells: E. coli BL21 pLysS
# T3 sequence (O75807 325-636, stated change not applied): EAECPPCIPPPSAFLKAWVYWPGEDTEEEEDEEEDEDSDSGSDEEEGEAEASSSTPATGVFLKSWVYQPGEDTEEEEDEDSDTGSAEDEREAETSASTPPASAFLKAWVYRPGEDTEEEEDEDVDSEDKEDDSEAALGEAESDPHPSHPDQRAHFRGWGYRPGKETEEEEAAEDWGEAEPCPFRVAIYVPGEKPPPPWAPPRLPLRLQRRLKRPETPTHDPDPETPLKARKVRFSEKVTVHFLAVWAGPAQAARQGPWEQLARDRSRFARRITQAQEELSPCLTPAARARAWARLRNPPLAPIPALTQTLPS
# Protocol: as §1, §2
# R15A [2] = biological target: T3, R15A; assay: Light scattering to monitor aggregation of R15A; settings: 5 μM R15A, 10 min, 20° C.
# Protocol: Samples were incubated for 10 min at RT. […] Therefore, light scattering was measured at 380 nm emission, 380 nm absorption to monitor the presence of aggregates. For each sample, 100 data points were collected over a period of 10 min, at 20° C., with constant stirring.
# R15A-PP1c = biological target: T4, R15A-PP1c (Homo sapiens, UniProt O75807); assay: In vitro dephosphorylation of P-eIF2α by recombinant R15A-PP1c holophosphatase (10 nM PP1c); assay type: biochemical; settings: PP1c 10 nM, 1 μM P-eIF2α, compounds 100 μM, 30° C., 16 h
# T4 construct: PPP1R15A amino acids 325-636 (R15A); His6 (C); made in house; host or cells: E. coli BL21 pLysS (R15A, eIF2α); E. coli BL21/pGro7 (PP1c)
# T4 sequence (O75807 325-636, stated change not applied): as above
# T4 sequence (P62136 7-330 partner): as the sequence (P62136 7-330 partner limits assumed, one chain of several) above
# Protocol: as §3
# (§4) The reaction was initiated by the addition of 1 μM P-eIF2α or ^33P Phosphorylase a substrates and then incubated at 30° C. for 16 h with shaking at 350 rpm. Reactions were stopped by addition of 4× Laemmli sample buffer. eIF2α samples were analyzed by immunoblotting or Phos-tag gels. […] Samples in FIG. 8 and FIG. 16 were run on a 15% SuperSep Phos-tag acrylamide gel (Alpha Laboratories) and visualized by staining with InstantBlue Protein Stain.
# eIF2α = assay: Thermophoresis affinity measurement, binding to labelled P-eIF2α; set-up: species or system human
# Protocol: Thermophoresis experiments were performed using a Monolith NT.115 instrument (NanoTemper Technologies). PP1c and P-eIF2α proteins were labeled using the Monolith NT Protein labelling Kit Red-NHS and stored for no longer than a month at −80° C. For thermophoresis, all protein dilutions were carried out in MST buffer (50 mM HEPES (pH 7.4), 100 mM NaCl, 0.1% Tween20, 2 mM MnCl2). Labelled proteins (100 nM) were mixed with equal volumes of serial dilutions of the unlabelled binding partner. In holophosphatase binding experiments, labelled P-eIF2 was diluted to 100 nM in MST buffer containing 10 μM regulatory subunit and then mixed as above with titrations of unlabelled PP1c. All experiments were carried out in enhanced grade capillaries, using 100% LED power and 100% IR-laser (on for 25 seconds (″)) at 20° C. NanoTemper Analysis 1.2.101 software was used to fit the data with a nonlinear solution of the law of mass action and KD values were determined. Each measurement was repeated in three independent experiments and KD values were averaged. Standard error of the mean (SEM) values are shown.
# PP1c = biological target: T5, PP1c (Homo sapiens, UniProt P62136); assay: Dephosphorylation of P-eIF2α by increasing amounts of PP1c alone; assay type: biochemical; settings: compound 100 μM, 30° C., 16 h
# T5 construct: The cDNA encoding amino acids 7-330 of human PP1cα; made in house; host or cells: E. coli BL21/pGro7 (PP1c); E. coli BL21 pLysS (eIF2α)
# T5 sequence (P62136 7-330): as the sequence (P62136 7-330 partner limits assumed, one chain of several) above
# Protocol: as §3, §4
molecule,measurement,setting,value
"N=C(N)N/N=C/c1ncccc1Cl [C3, (E)-2-((3-chloropyridin-2-yl)methylene)hydrazine-1-carboximidamide]",cytoprotection from ER stress,HeLa cells,inactive
same,sensitivity of R15B to trypsin proteolysis,R15B,did not alter the protease sensitivity
same,inhibition of R15B-PP1c eIF2α holophosphatase,R15B-PP1c,did not inhibit R15A-PP1 or R15B-PP1
same,sensitivity of R15A to trypsin proteolysis,R15A [1],did not alter the protease sensitivity
same,aggregation of R15A (light scattering at 380 nm),R15A [2]; 1 mM compound,No aggregation
same,inhibition of R15A-PP1c eIF2α holophosphatase,R15A-PP1c,did not inhibit R15A-PP1 or R15B-PP1
PP1c^D95A: catalytically inactive D95A mutant of human PP1cα (amino acids 7-330),Kd,eIF2α; 20° C.,~0.65 µM
O=C(/C=C/c1ccccc1)NC(NC(=S)Nc1cccc2cccnc12)C(Cl)(Cl)Cl (stereo not shown) [Salubrinal],inhibition of PP1c alone,PP1c,inhibited PP1c
same,aggregation of R15A (light scattering at 380 nm),R15A [2]; 50 μM compound,induced robust aggregation
R15B-PP1c^D95A: holophosphatase complex of R15B (PPP1R15B 340-698) with PP1c^D95A,affinity for eIF2α relative to isolated PP1c^D95A,eIF2α; 10 μM regulatory subunit,3.0 times higher
